Assay results from patent US20090311217A1, “3-SUBSTITUTED-1H-INDOLE COMPOUNDS, THEIR USE AS MTOR KINASE AND PI3 KINASE INHIBITORS, AND THEIR SYNTHESES” (priority 2008, published 2009).
pIC50: −log10 of the molar value.

Target: PI3K-alpha (Homo sapiens, UniProt P42336)
Test: PI3K-alpha fluorescence polarization assay
Type: biochemical
Details: PI3Kα Avg. IC50

Chain of PI3K-alpha (P42336 whole entry, species assumed): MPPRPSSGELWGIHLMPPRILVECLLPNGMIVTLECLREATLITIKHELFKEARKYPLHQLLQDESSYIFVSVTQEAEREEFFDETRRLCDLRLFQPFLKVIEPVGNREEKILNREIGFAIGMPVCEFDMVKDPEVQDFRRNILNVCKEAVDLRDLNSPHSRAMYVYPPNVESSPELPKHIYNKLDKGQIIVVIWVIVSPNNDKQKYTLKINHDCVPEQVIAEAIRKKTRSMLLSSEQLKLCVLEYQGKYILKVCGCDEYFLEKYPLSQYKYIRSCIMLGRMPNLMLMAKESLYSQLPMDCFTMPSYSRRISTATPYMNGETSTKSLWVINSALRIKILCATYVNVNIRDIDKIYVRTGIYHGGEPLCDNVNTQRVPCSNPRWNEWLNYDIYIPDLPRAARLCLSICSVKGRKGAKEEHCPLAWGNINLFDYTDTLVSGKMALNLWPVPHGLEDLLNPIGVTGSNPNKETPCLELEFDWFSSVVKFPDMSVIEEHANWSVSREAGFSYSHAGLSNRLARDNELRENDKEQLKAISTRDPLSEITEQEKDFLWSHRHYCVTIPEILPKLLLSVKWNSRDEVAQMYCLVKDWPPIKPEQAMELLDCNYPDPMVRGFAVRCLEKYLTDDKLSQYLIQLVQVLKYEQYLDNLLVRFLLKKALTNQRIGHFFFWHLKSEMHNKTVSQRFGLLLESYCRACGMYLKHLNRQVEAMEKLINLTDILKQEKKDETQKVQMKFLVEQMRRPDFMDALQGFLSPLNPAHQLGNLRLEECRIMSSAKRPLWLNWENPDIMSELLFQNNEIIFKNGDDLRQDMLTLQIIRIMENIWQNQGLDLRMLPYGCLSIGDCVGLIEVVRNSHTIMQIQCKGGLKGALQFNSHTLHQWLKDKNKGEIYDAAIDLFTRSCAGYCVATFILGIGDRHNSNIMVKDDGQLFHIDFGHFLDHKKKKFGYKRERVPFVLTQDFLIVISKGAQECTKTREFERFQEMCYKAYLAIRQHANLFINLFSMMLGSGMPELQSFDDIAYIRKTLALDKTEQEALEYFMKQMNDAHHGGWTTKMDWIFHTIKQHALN
Chain of PI3K-alpha (P27986 whole entry partner, species assumed): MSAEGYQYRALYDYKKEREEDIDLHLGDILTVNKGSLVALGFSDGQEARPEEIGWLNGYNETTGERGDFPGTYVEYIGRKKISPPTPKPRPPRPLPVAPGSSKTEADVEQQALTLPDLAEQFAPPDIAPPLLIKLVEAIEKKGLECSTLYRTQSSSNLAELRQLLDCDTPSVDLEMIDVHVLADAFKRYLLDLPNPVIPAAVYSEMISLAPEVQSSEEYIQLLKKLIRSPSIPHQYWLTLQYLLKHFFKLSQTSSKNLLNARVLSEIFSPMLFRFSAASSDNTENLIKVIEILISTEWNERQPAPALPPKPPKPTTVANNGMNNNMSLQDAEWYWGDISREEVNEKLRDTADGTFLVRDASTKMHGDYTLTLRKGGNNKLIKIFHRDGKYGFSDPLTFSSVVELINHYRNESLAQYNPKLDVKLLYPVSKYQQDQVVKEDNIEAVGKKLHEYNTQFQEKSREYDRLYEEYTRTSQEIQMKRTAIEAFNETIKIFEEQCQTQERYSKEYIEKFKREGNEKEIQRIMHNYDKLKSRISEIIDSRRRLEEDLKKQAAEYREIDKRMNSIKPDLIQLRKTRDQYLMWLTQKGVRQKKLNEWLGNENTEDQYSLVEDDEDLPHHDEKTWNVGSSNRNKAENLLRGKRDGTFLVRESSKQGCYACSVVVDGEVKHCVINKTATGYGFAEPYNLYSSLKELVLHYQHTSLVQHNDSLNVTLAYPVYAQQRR

| SMILES | pIC50 |
| --- | --- |
| CNC(=O)Oc1ccc2c(c1)C(=O)/C(=C/c1cn(CCN3CCN(C)CC3)c3ccc(OC)cc13)O2 [Compound 546, (2Z)-2-({5-methoxy-1-[2-(4-methylpiperazin-1-yl)ethyl]-1H-indol-3-yl}methylene)-3-oxo-2,3-dihydro-1-benzofuran-5-yl methylcarbamate] | 6.20 |
| COc1ccc2c(c1)c(/C=C1\Oc3cc(OC(=O)N(C)c4ccccc4)ccc3C1=O)c(C)n2CCN1CCN(C)CC1 [Compound 558, (2Z)-2-({5-methoxy-2-methyl-1-[2-(4-methylpiperazin-1-yl)ethyl]-1H-indol-3-yl}methylene)-3-oxo-2,3-dihydro-1-benzofuran-6-yl methyl(phenyl)carbamate] | < 5.00 |

Same assay, conditions: read-out: PI3Kα Avg. IC50

| pIC50 | SMILES |
| --- | --- |
| < 5.00 | O=C1C(=Cc2c[nH]c3ccccc23)Oc2ccccc21 [Example 1, 2-(1H-indol-3-ylmethylene)-1-benzofuran-3(2H)-one] |
| < 5.00 | COc1cccc2c1OC(=Cc1c[nH]c3ccccc13)C2=O [Example 9, 2-(1H-indol-3-ylmethylene)-7-methoxy-1-benzofuran-3(2H)-one] |
| < 5.00 | COc1cccc2c1OC(=Cc1c(-c3ccccc3)[nH]c3ccccc13)C2=O [Example 10, 7-methoxy-2-[(2-phenyl-1H-indol-3-yl)methylene]-1-benzofuran-3(2H)-one] |
| < 5.00 | COc1cccc2c1OC(=Cc1cn(C)c3ccccc13)C2=O [Example 12, 7-methoxy-2-[(1-methyl-1H-indol-3-yl)methylene]-1-benzofuran-3(2H)-one] |
| 5.70 | O=C1/C(=C/c2c(-c3ccc(F)cc3)[nH]c3ccccc23)Oc2ccccc21 [Example 19, (2Z)-2-{[2-(4-fluorophenyl)-1H-indol-3-yl]methylene}-1-benzofuran-3(2H)-one] |
| < 5.00 | Cc1ccc2c(/C=C3\Oc4ccccc4C3=O)c[nH]c2c1 [Example 22, (2Z)-2-[(6-methyl-1H-indol-3-yl)methylene]-1-benzofuran-3(2H)-one] |
| < 5.00 | Cc1cccc2c(/C=C3\Oc4ccccc4C3=O)c[nH]c12 [Example 23, (2Z)-2-[(7-methyl-1H-indol-3-yl)methylene]-1-benzofuran-3(2H)-one] |
| < 5.00 | O=C1/C(=C/c2c[nH]c3ccc(Br)cc23)Oc2ccccc21 [Example 24, (2Z)-2-[(5-bromo-1H-indol-3-yl)methylene]-1-benzofuran-3(2H)-one] |
| 5.42 | O=C1/C(=C/c2c(-c3ccc(Cl)cc3)[nH]c3ccccc23)Oc2cc(O)ccc21 [Example 26, (2Z)-2-{[2-(4-chlorophenyl)-1H-indol-3-yl]methylene}-6-hydroxy-1-benzofuran-3(2H)-one] |
| 5.62 | O=C1/C(=C/c2c(-c3ccc(F)cc3)[nH]c3ccccc23)Oc2cc(O)ccc21 [Example 28, (2Z)-2-{[2-(4-fluorophenyl)-1H-indol-3-yl]methylene}-6-hydroxy-1-benzofuran-3(2H)-one] |
| < 5.00 | Cc1[nH]c2ccc([N+](=O)[O-])cc2c1/C=C1\Oc2cc(O)ccc2C1=O [Example 29, (2Z)-6-hydroxy-2-[(2-methyl-5-nitro-1H-indol-3-yl)methylene]-1-benzofuran-3(2H)-one] |
| 4.89 | Cc1[nH]c2ccccc2c1/C=C1\Oc2cc(O)ccc2C1=O [Example 30, (2Z)-6-hydroxy-2-[(2-methyl-1H-indol-3-yl)methylene]-1-benzofuran-3(2H)-one] |
| 5.02 | Cc1ccc2c(/C=C3\Oc4cc(O)ccc4C3=O)c[nH]c2c1 [Example 31, (2Z)-6-hydroxy-2-[(6-methyl-1H-indol-3-yl)methylene]-1-benzofuran-3(2H)-one] |
| 5.19 | O=C1/C(=C/c2c[nH]c3ccc(Br)cc23)Oc2cc(O)ccc21 [Example 32, (2Z)-2-[(5-bromo-1H-indol-3-yl)methylene]-6-hydroxy-1-benzofuran-3(2H)-one] |
| 5.63 | COc1cccc2c1O/C(=C\c1c(-c3ccc(F)cc3)[nH]c3ccccc13)C2=O [Example 37, (2Z)-2-{[2-(4-fluorophenyl)-1H-indol-3-yl]methylene}-7-methoxy-1-benzofuran-3(2H)-one] |
| < 5.00 | COc1cccc2c1O/C(=C\c1c(C)[nH]c3ccc([N+](=O)[O-])cc13)C2=O [Example 38, (2Z)-7-methoxy-2-[(2-methyl-5-nitro-1H-indol-3-yl)methylene]-1-benzofuran-3(2H)-one] |
| < 5.00 | COc1cccc2c1O/C(=C\c1c(C)[nH]c3ccccc13)C2=O [Example 39, (2Z)-7-methoxy-2-[(2-methyl-1H-indol-3-yl)methylene]-1-benzofuran-3(2H)-one] |
| < 5.00 | COc1cccc2c1O/C(=C\c1c[nH]c3cc(C)ccc13)C2=O [Example 40, (2Z)-7-methoxy-2-[(6-methyl-1H-indol-3-yl)methylene]-1-benzofuran-3(2H)-one] |
| < 5.00 | COc1cccc2c1O/C(=C\c1c[nH]c3ccc(OCc4ccccc4)cc13)C2=O [Example 43, (2Z)-2-{[5-(benzyloxy)-1H-indol-3-yl]methylene}-7-methoxy-1-benzofuran-3(2H)-one] |
| 5.35 | Cn1cc(/C=C2\Oc3c(ccc(O)c3O)C2=O)c2ccccc21 [Example 57, (2Z)-6,7-dihydroxy-2-[(1-methyl-1H-indol-3-yl)methylene]-1-benzofuran-3(2H)-one] |
| 5.77 | O=C1/C(=C/c2c[nH]c3ccc(F)cc23)Oc2c1ccc(O)c2O [Example 64, (2Z)-2-[(5-fluoro-1H-indol-3-yl)methylene]-6,7-dihydroxy-1-benzofuran-3(2H)-one] |
| 5.94 | COc1ccc2c(c1)c(C=C1Oc3c(ccc(O)c3O)C1=O)cn2C [Example 85, 6,7-dihydroxy-2-[(5-methoxy-1-methyl-1H-indol-3-yl)methylene]-1-benzofuran-3(2H)-one] |
| 5.80 | COc1ccc2c(c1)c(C=C1Oc3c(ccc(O)c3O)C1=O)c(C)n2CCCCN1CCN(C)CC1 [Example 144, 6,7-dihydroxy-2-({5-methoxy-2-methyl-1-[4-(4-methylpiperazin-1-yl)butyl]-1H-indol-3-yl}methylene)-1-benzofuran-3(2H)-one] |

Second part, the compound before the results:

| SMILES | pIC50 |
| --- | --- |
| Cc1cccc2c1c(/C=C1\Oc3cc(O)cc(O)c3C1=O)c(-c1ccccn1)n2C [Compound 477, (2Z)-2-[(1,4-dimethyl-2-pyridin-2-yl-1H-indol-3-yl)methylene]-4,6-dihydroxy-1-benzofuran-3(2H)-one] | 5.95 |
| COc1cc(-c2ccncc2)c2c(c1)c(/C=C1\Oc3cc(O)ccc3C1=O)cn2CCCC#N [Compound 500, 4-{3-[(Z)-(6-hydroxy-3-oxo-1-benzofuran-2(3H)-ylidene)methyl]-5-methoxy-7-pyridin-4-yl-1H-indol-1-yl}butanenitrile] | 6.23 |
| COc1ccc2c(c1)c(/C=C1\Oc3ccc(Br)cc3C1=O)cn2CCCN(C)C [Compound 516, (2Z)-5-bromo-2-({1-[3-(dimethylamino)propyl]-5-methoxy-1H-indol-3-yl}methylene)-1-benzofuran-3(2H)-one] | 5.01 |
| CN(c1ccccc1)c1cccc2c1c(/C=C1\Oc3cc(O)cc(O)c3C1=O)cn2C [Compound 542, (2Z)-4,6-dihydroxy-2-({1-methyl-4-[methyl(phenyl)amino]-1H-indol-3-yl}methylene)-1-benzofuran-3(2H)-one] | 6.44 |
| Cn1c(-c2ccccc2)c(C=C2Oc3cc(O)ccc3C2=O)c2ccccc21 [Example 7, 6-hydroxy-2-[(1-methyl-2-phenyl-1H-indol-3-yl)methylene]-1-benzofuran-3(2H)-one] | < 5.00 |
| COc1cccc2c1OC(=Cc1c(-c3ccccc3)n(C)c3ccccc13)C2=O [Example 11, 7-methoxy-2-[(1-methyl-2-phenyl-1H-indol-3-yl)methylene]-1-benzofuran-3(2H)-one] | < 5.00 |
| O=C1/C(=C/c2c(-c3ccc(Cl)cc3)[nH]c3ccccc23)Oc2ccccc21 [Example 17, (2Z)-2-{[2-(4-chlorophenyl)-1H-indol-3-yl]methylene}-1-benzofuran-3(2H)-one] | 5.60 |
| O=C1/C(=C/c2c(-c3ccc4ccccc4c3)[nH]c3ccccc23)Oc2ccccc21 [Example 18, (2Z)-2-{[2-(2-naphthyl)-1H-indol-3-yl]methylene}-1-benzofuran-3(2H)-one] | 5.59 |
| Cc1[nH]c2ccc([N+](=O)[O-])cc2c1/C=C1\Oc2ccccc2C1=O [Example 20, (2Z)-2-[(2-methyl-5-nitro-1H-indol-3-yl)methylene]-1-benzofuran-3(2H)-one] | < 5.00 |
| Cc1[nH]c2ccccc2c1/C=C1\Oc2ccccc2C1=O [Example 21, (2Z)-2-[(2-methyl-1H-indol-3-yl)methylene]-1-benzofuran-3(2H)-one] | < 5.00 |
| O=C1/C(=C/c2cn(Cc3ccccc3)c3ccccc23)Oc2ccccc21 [Example 25, (2Z)-2-[(1-benzyl-1H-indol-3-yl)methylene]-1-benzofuran-3(2H)-one] | < 5.00 |
| O=C1/C(=C/c2c(-c3ccc4ccccc4c3)[nH]c3ccccc23)Oc2cc(O)ccc21 [Example 27, (2Z)-6-hydroxy-2-{[2-(2-naphthyl)-1H-indol-3-yl]methylene}-1-benzofuran-3(2H)-one] | 5.26 |
| O=C1/C(=C/c2cn(Cc3ccccc3)c3ccccc23)Oc2cc(O)ccc21 [Example 33, (2Z)-2-[(1-benzyl-1H-indol-3-yl)methylene]-6-hydroxy-1-benzofuran-3(2H)-one] | < 5.00 |
| COc1cccc2c1O/C(=C\c1c(-c3ccc(Cl)cc3)[nH]c3ccccc13)C2=O [Example 35, (2Z)-2-{[2-(4-chlorophenyl)-1H-indol-3-yl]methylene}-7-methoxy-1-benzofuran-3(2H)-one] | 5.71 |
| COc1cccc2c1O/C(=C\c1c(-c3ccc4ccccc4c3)[nH]c3ccccc13)C2=O [Example 36, (2Z)-7-methoxy-2-{[2-(2-naphthyl)-1H-indol-3-yl]methylene}-1-benzofuran-3(2H)-one] | < 5.00 |
| COc1cccc2c1O/C(=C\c1cn(Cc3ccccc3)c3ccccc13)C2=O [Example 42, (2Z)-2-[(1-benzyl-1H-indol-3-yl)methylene]-7-methoxy-1-benzofuran-3(2H)-one] | < 5.00 |
| COc1ccc2[nH]c(-c3ccccc3)c(C=C3Oc4cccc(O)c4C3=O)c2c1 [Example 79, 4-hydroxy-2-[(5-methoxy-2-phenyl-1H-indol-3-yl)methylene]-1-benzofuran-3(2H)-one] | 5.78 |
